In ChEMBL document CHEMBL3817793, “Recent Progress in the Discovery of Next Generation Inhibitors of Aromatase from the Structure-Function Perspective” (J Med Chem, 2016):

Assays:
[1] = target: T1, Aromatase (Homo sapiens, UniProt P11511); test: Inhibition of human placental microsomal aromatase using [1beta-3H] androstenedione as substrate assessed as tritiated H2O release after 15 mins by liquid scintillation counting method
T1 sequence (P11511 whole entry): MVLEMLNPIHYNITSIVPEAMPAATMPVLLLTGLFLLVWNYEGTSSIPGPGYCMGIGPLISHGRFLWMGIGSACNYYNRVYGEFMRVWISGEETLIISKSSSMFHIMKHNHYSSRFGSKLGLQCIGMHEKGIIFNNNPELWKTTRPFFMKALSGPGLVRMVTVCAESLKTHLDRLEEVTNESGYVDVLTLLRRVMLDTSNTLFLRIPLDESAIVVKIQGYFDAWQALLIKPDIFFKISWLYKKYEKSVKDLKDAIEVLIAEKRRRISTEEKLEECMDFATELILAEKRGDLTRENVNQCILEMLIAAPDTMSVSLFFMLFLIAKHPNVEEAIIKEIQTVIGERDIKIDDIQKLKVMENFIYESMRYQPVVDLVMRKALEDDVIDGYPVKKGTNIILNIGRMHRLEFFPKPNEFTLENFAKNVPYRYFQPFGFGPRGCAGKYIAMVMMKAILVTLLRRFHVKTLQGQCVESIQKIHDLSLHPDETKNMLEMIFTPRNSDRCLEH

[2] = target: T1, Aromatase; test: Inhibition of particulate fractions of human breast cancer derived aromatase
[3] = target: T1, Aromatase; test: Inhibition of human aromatase using testosterone as substrate incubated for 1 hr by HTRF assay
[4] = target: T1, Aromatase; test: Inhibition of human placental microsomal aromatase using [1beta-3H] androstenedione as substrate assessed as tritiated H2O release preincubated for 5 mins followed by protein addition measured after 20 mins by beta counting method
[5] = target: T1, Aromatase; test: Inhibition of human placental microsomal aromatase using testosterone as substrate assessed as formation of estradiol after 10 mins
[6] = target: T1, Aromatase
Description: Competitive inhibition of human placental microsomal aromatase using androgen as substrate

SMILES: C=CC[C@@H]1CC2=CC(=O)CC[C@]2(C)[C@H]2CC[C@]3(C)C(=O)CC[C@H]3[C@H]12
- IC50 [1]: 590 nM

SMILES: C[C@]12CCC(=O)C(O)=C1CC[C@@H]1[C@@H]2CC[C@]2(C)C(=O)CC[C@@H]12 [FORMESTANE]
- IC50 [2]: 30 nM

SMILES: Fc1ccc(-c2cc(-n3cccc3)c3ccccc3n2)cc1
- IC50 [3]: 800 nM

SMILES: C[C@]12Cc3cc[nH]c3C(=O)[C@@H]1CC[C@@H]1[C@@H]2CC[C@]2(C)[C@@H](O)CC[C@@H]12
- IC50 [4]: 512 nM

SMILES: C=CC[C@@H]1CC2=CCCC[C@]2(C)[C@H]2CC[C@]3(C)C(=O)CC[C@H]3[C@H]12
- IC50 [1]: 750 nM

SMILES: C=CC[C@@H]1CC2=CC(=O)C=C[C@]2(C)[C@H]2CC[C@]3(C)[C@@H](O)CC[C@H]3[C@H]12
- IC50 [1]: 450 nM

SMILES: CC/C(=C(\c1ccc(O)cc1)c1ccc(OCCN(C)C)cc1)c1ccccc1 [AFIMOXIFENE]
- IC50 [5]: 530000 nM

SMILES: COc1ccc2c(Cc3ccccc3)c(-c3ccc(Cl)cc3)c(=O)oc2c1
- Ki [6]: 84 nM
